In the data set the target is HSD17B13. Conditions: ASO, HepaRG.

After the bases stand the sugars from the 5' end (letter, count) and the backbone: PS all phosphorothioate, else s phosphorothioate and o phosphodiester by linkage. Methylation of C is not given here. e = 2'-O-(2-methoxyethyl) (MOE); k = constrained ethyl (cEt); d = 2'-deoxy (DNA); m = 2'-O-methyl

CTATAGTAATCACAAG (sugars k3 d10 k3, PS) had a target mRNA inhibition (1 µM) of 35%.
Regarding “TCATAGTGGACTTCAT (sugars k3 d1 m1 d8 k3, PS)”, the target mRNA inhibition (1 µM) stood at 44%.
With AATCGCTGCTTAGTTC (sugars k3 d10 k3, PS), the target mRNA inhibition (1 µM) came out at 41%.
TATGAGTAAAGATCTA (sugars k3 d10 k3, PS) had a target mRNA inhibition (1 µM) of 10%.
The sequence CTCTATAAAATCAATC (sugars k3 d10 k3, PS) registered a target mRNA inhibition (1 µM) of 0%.
Regarding AATATTGAGGCACTGG (sugars k3 d10 k3, PS), the target mRNA inhibition (1 µM) turned out to be 54%.
On the same count and under the same terms, for “GTTTCTTATGTAATAG (sugars kkkddddkddddkkke, PS)” the value was 44%.
On to ATGTAGTGTTTACAAG (sugars k3 d10 k3, PS), for which the target mRNA inhibition (1 µM) worked out at 58%.
Take TCCAGTAGGTGTGTTT (sugars k3 d10 k3, PS): the target mRNA inhibition (1 µM) turned out to be 47%.
As to CAGACTAAGGGACCAG (sugars k3 d10 k3, PS), the target mRNA inhibition came out at 23% (0.02 µM); 24% (0.078 µM); 63% (0.313 µM); 75% (1 µM); 76% (1.25 µM); 89% (5 µM).
For “TCATAGTGGACTTCAT (sugars k3 d9 k3 e1, PS)”, the target mRNA inhibition (1 µM) stood at 54%.
AATACTAATGTCCAAG (sugars k3 d10 k3, PS): the target mRNA inhibition (1 µM) was 65%.
In turn, CTTACCTTGTGCTTGG (sugars k3 d10 k3, PS) returned a target mRNA inhibition (1 µM) of 34%.
Sequence “GTATTCCATCTATCAG (sugars kkdddddddddkekek, PS)” displayed a target mRNA inhibition (1 µM) of 48%.
Take ACCAACTATGTAATAG (sugars k3 d10 k3, PS): the target mRNA inhibition (1 µM) stood at 47%.
In the case of GACCTCAAATGTCTTG (sugars k3 d10 k3, PS), under “1 µM”, the target mRNA inhibition was 12%.
For TCAACTAAACATGACA (sugars k3 d10 k3, PS), the target mRNA inhibition by setting is: (0.02 µM) 0%; (0.078 µM) 0%; (0.313 µM) 42%; (1 µM) 77%; (1.25 µM) 69%; (5 µM) 89%.
Regarding “GAACAGTCTTAAACCT (sugars kkdddddddddkekek, PS)”, where the note is “1 µM”, the target mRNA inhibition is 63%.
The same measure, in the same setting: to TTTTTAAGAGGCATGA (sugars k3 d10 k3, PS) belongs 60%; to “TGCATCTTAAGATACC (sugars k3 d9 k3 e1, PS)”, 37%; to GGAATGCTCATATTAA (sugars k3 d10 k3, PS), 19%.
TCCAGTAAAAAATTGG (sugars k3 d10 k3, PS): where the note is “1 µM”, the target mRNA inhibition stood at 12%.
“TGACAATGGTTGCCAC (sugars k3 d1 m1 d8 k3, PS)” displayed a target mRNA inhibition (1 µM) of 55%.
Still for that read-out and setting: for CACTAATATTGAGGCA (sugars k3 d10 k3, PS) the value was 31%.
With AGAAATCTAAGAACCC (sugars k3 d10 k3, PS), where the note is “1 µM”, the target mRNA inhibition was 25%.
For “AAGAGTCAGTATCCTC (sugars kkdddddddddkekek, PS)”, for the setting “1 µM”, the target mRNA inhibition was found to be 14%.
With CAACTTTTAGTCAGGT (sugars k3 d10 k3, PS), the target mRNA inhibition (1 µM) stood at 66%.
The same measure, in the same setting: to “TAGCUGTGCACTCATT (sugars k3 d1 m1 d8 k3, PS)” belongs 60%; to TATCTTATAAGACTAT (sugars k3 d10 k3, PS), 43%; to “TTATGTAATAGCCAGT (sugars kkdddddddddkekek, PS)”, 63%.
On the same count and under the same terms, to GTTTCTTATGTAATAG (sugars k3 d10 k3, PS) belongs 46%; to TCCAAAAGTGTCCTCG (sugars k3 d10 k3, PS), 31%; to AAAAAATTGGTTTCGA (sugars k3 d10 k3, PS), 20%.
On to TGGTAATCTCTTCATC (sugars k3 d10 k3, PS), for which the target mRNA inhibition (1 µM) turned out to be 23%.
